The values below come from publication PMC12650660, “Novel Synthetic Strategies Towards Analogues of Cadaside and Malacidin Antibiotic Peptides” (Biomolecules, 2025).

Data set [1] can be described thus: tail-to-side-chain lactamisation of side-chain-protected peptide (Dap2 beta-NH2 + C-terminal Pro), HATU/DIPEA, microwave. Conditions: the molecule shown is the open-chain precursor; 28-membered ring; DCM; 6.0 mM; 70.0 °C; 1.0 h.
Details of data set [2]: key: “+” indicates binding confirmed; “-” indicates no binding; “~” indicates potential binding with absence of precursor band. The following applies: Table S2; ref SI [7], [9], [10]; cited from earlier work. From the text: page 11: Table S2: Summary of the ability of CDAs to bind cell wall synthesis precursors, as well as tendency to induce membrane depolarisation. “+” indicates binding, “-” indicates no binding, “n.d.” indicates binding has not been determined. * indicates binding occurs in the presence of phosphatidylglycerol. Peptide C -P C-PP Lipid I Lipid II Membrane 55 55 Depolarisation Daptomycin [1]–[4] + * + * n.d. + * + A54145 [5] n.d. n.d. n.d. n.d. + Tsushimycin [4] + n.d. n.d. n.d. n.d. Laspartomycin [6] + n.d. n.d. n.d. - Friulimicin [7] + - - - - Taromycin n.d. n.d. n.d. n.d. n.d. Amphomycin [9], ...

Data set [3] in a line: head-to-tail type lactamisation of side-chain-protected branched depsipeptide (Gly10 N-terminus of ester branch + C-terminal Pro9), HATU/DIPEA (pH ~10), microwave. Conditions: the molecule shown is the open-chain precursor, DCM, 6.0 mM, 70.0 °C, 1.0 h.

In the case of `CCCCCCCCCC(=O)N[C@@H](CC(=O)OC(C)(C)C)C(=O)N[C@@H](CN)C(=O)N[C@@H](C(=O)N[C@@H](CCCCNC(=O)OC(C)(C)C)C(=O)N[C@@H](CC(=O)OC(C)(C)C)C(=O)N[C@@H](CC(=O)OC(C)(C)C)C(=O)N(CC(=O)N[C@H](CC(=O)OC(C)(C)C)C(=O)N[C@H](C(=O)N1CCC[C@H]1C(=O)O)C(C)C)Cc1ccc(OC)cc1OC)C(C)C`, the ring closure, overall yield in data set [1] worked out at 1.3%.

On to Amphomycin, for which the “Lipid I binding (reported)” value in data set [2] was “-”.

For the compound `CCCCCCCCCC(=O)NC[C@@H](C)C(=O)NCC(=O)N[C@H](CCC(=O)OC(C)(C)C)C(=O)N[C@@H](Cc1ccc(OC(C)(C)C)cc1)C(=O)N[C@H](C(=O)N[C@@H](C(=O)N[C@@H](CC(=O)OC(C)(C)C)C(=O)N[C@@H](CC(=O)OC(C)(C)C)C(=O)N1CCC[C@H]1C(=O)O)[C@H](C)CC)[C@@H](C)OC(=O)CN(C)C(=O)[C@H](CCC(=O)OC(C)(C)C)NC(=O)[C@H](CCC(=O)OC(C)(C)C)NC(=O)CN`, the ring closure, overall yield in data set [3] (28-membered ring) was 1%.

Turning to `CCCCCCCCCC(=O)NC[C@@H](C)C(=O)NCC(=O)N[C@H](CCC(=O)OC(C)(C)C)C(=O)N[C@@H](Cc1ccc(OC(C)(C)C)cc1)C(=O)N[C@H](C(=O)N[C@@H](C(=O)N[C@@H](CC(=O)OC(C)(C)C)C(=O)N[C@@H](CC(=O)OC(C)(C)C)C(=O)N1CCC[C@H]1C(=O)O)[C@H](C)CC)[C@@H](C)OC(=O)CN(C)C(=O)[C@H](CC(=O)OC(C)(C)C)NC(=O)[C@H](CC(=O)OC(C)(C)C)NC(=O)CN`, the ring closure, overall yield in data set [3] (28-membered ring) amounted to 0.4%.

For the compound `CCCCCCCCCC(=O)NC[C@@H](C)C(=O)NCC(=O)N[C@H](CCC(=O)OC(C)(C)C)C(=O)N[C@@H](Cc1ccc(OC(C)(C)C)cc1)C(=O)N[C@H](C(=O)N[C@@H](C(=O)N[C@@H](CC(=O)OC(C)(C)C)C(=O)N[C@@H](CC(=O)OC(C)(C)C)C(=O)N1CCC[C@H]1C(=O)O)[C@H](C)CC)[C@@H](C)OC(=O)CN(C)C(=O)[C@H](CC(=O)OC(C)(C)C)NC(=O)CNC(=O)[C@H](CC(=O)OC(C)(C)C)NC(=O)CN`, the ring closure, overall yield in data set [3] (31-membered ring) was 0.3%.

As to `CCCCCCCCCC(=O)NC[C@@H](C)C(=O)NCC(=O)N[C@H](CCC(=O)OC(C)(C)C)C(=O)N[C@@H](Cc1ccc(OC(C)(C)C)cc1)C(=O)N[C@H](C(=O)N[C@@H](C(=O)N[C@@H](CC(=O)OC(C)(C)C)C(=O)N[C@@H](CC(=O)OC(C)(C)C)C(=O)N1CCC[C@H]1C(=O)O)[C@H](C)CC)[C@@H](C)OC(=O)CN(C)C(=O)[C@H](CCC(=O)OC(C)(C)C)NC(=O)[C@@H](CCC(=O)OC(C)(C)C)NC(=O)CN`, the ring closure, overall yield in data set [3] (28-membered ring) was 0.5%.

Consider `CCCCCCCCCC(=O)NC[C@@H](C)C(=O)NCC(=O)N[C@H](CCC(=O)OC(C)(C)C)C(=O)N[C@@H](Cc1ccc(OC(C)(C)C)cc1)C(=O)N[C@H](C(=O)N[C@@H](C(=O)N[C@@H](CC(=O)OC(C)(C)C)C(=O)N[C@@H](CC(=O)OC(C)(C)C)C(=O)N1CCC[C@H]1C(=O)O)[C@H](C)CC)[C@@H](C)OC(=O)CN(C)C(=O)[C@H](CC(=O)OC(C)(C)C)NC(=O)[C@@H](CCC(=O)OC(C)(C)C)NC(=O)CN`, for which, in data set [3] (28-membered ring), the ring closure, overall yield amounted to 0.4%.

On to Friulimicin, for which the “Lipid I binding (reported)” value in data set [2] is “-”.

Consider `CCCCCCCCCC(=O)NC[C@@H](C)C(=O)NCC(=O)N[C@H](CCC(=O)OC(C)(C)C)C(=O)N[C@@H](Cc1ccc(OC(C)(C)C)cc1)C(=O)N[C@H](C(=O)N[C@@H](C(=O)N[C@@H](CC(=O)OC(C)(C)C)C(=O)N[C@@H](CC(=O)OC(C)(C)C)C(=O)N1CCC[C@H]1C(=O)O)[C@H](C)CC)[C@@H](C)OC(=O)CN(C)C(=O)[C@H](CC(=O)OC(C)(C)C)NC(=O)[C@H](CCC(=O)OC(C)(C)C)NC(=O)CN`, for which the ring closure, overall yield in data set [3] (28-membered ring) turned out to be 0.2%.
